Structures are written as SMILES.

This assay concerns the target T1, human PPARα (Homo sapiens, UniProt Q07869).
T1 construct: host or cells: proprietary non-human mammalian cells
T1 sequence (Q07869 1-468): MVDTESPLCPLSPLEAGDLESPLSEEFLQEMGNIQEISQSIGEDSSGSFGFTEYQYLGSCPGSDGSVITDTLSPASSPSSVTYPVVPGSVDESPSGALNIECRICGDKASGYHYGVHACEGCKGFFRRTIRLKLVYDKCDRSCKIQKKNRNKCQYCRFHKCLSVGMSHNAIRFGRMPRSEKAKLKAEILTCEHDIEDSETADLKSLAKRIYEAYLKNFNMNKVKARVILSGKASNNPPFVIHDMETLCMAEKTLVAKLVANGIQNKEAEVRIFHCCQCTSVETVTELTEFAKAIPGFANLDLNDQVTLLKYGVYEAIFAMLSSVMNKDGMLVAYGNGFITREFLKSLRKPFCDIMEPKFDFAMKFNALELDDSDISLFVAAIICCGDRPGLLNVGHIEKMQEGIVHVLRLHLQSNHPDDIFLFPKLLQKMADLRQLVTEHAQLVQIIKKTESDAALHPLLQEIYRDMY
As to the kind of experiment: Human PPARα Reporter Assay (luciferase, Indigo Biosciences). Type of assay: cell-based. As to conditions: antagonism; luciferase reporter cells, overnight incubation; read-out: PPARα IC50. The procedure: Human PPARα Reporter Assay
The screening of test compounds for agonist or antagonist activities against human PPARα receptors was performed using a commercial kit, Human PPARα Reporter Assay System (Indigo Biosciences, Cat. #IB00111).
This nuclear receptor assay system utilizes proprietary non-human mammalian cells engineered to provide constitutive, high-level expression of Human PPARα. Because these cells incorporate a PPARα-responsive luciferase reporter gene, quantifying expressed luciferase activity provides a sensitive surrogate measure of PPARα activity in the treated cells. The primary application of this reporter assay system is in the screening of test samples to quantify any functional activity, either agonist or antagonist, that they may exert against human PPARα.
Briefly, reporter cells are dispensed into wells of the assay plate and then immediately dosed with test compounds. Following an overnight incubation, the treatment media is discarded and Luciferase Detection Reagent (LDR) is added. The intensity of light emission from the ensuing luciferase reaction provides a sensitive measure that is directly proportional to the relative level of PPARα activation in the reporter cells.
On the technique in general: Reporter assays use an easily measured gene product as a stand-in for the process of interest.
In general, IC50 refers to the midpoint of a concentration-inhibition curve. `CC(C)(Oc1ccc(CCCC2=NN(c3ccc(C(F)(F)F)cc3)C(=O)C2(C)C)cc1)C(=O)NS(=O)(=O)c1ccccc1` [Example 22, 2-(4-(3-(4,4-dimethyl-5-oxo-1-(4-(trifluoromethyl)phenyl)-4,5-dihydro-1H-pyrazol-3-yl)propyl)phenoxy)-2-methyl-N-(phenylsulfonyl)propanamide]: the IC50 turned out to be 0.0009 µM.
As to `CC(C)(Oc1ccc(CCCC2=NN(Cc3ccc(C(C)(C)C)cc3)C(=O)C23CCCC3)cc1)C(=O)O` [Example 23, 2-(4-(3-(3-(4-(tert-butyl)benzyl)-4-oxo-2,3-diazaspiro[4,4]non-1-en-1-yl)propyl)phenoxy)-2-methylpropanoic acid], the IC50 worked out at 0.013 µM.
As for `CC(C)(Oc1ccc(CCCC2=NN(c3ccc(C(F)(F)F)cc3)C(=O)C23CCCC3)cc1)C(=O)O` [Example 24, 2-methyl-2-(4-(3-(4-oxo-3-(4-(trifluoromethyl)phenyl)-2,3-diazaspiro[4,4]non-1-en-1-yl)propyl)phenoxy)propanoic acid], the figure is 0.0014 µM; as for `CC(C)(Oc1ccc(CCCC2=NN(c3ccc(C(F)(F)F)cc3)C(=O)C23CCCC3)cc1)C(=O)NS(=O)(=O)c1ccccc1` [Example 25, 2-methyl-2-(4-(3-(4-oxo-3-(4-(trifluoromethyl)phenyl)-2,3-diazaspiro[4,4]non-1-en-1-yl)propyl)phenoxy)-N-(phenylsulfonyl)propanamide], 0.001 µM.
As for `CC(C)(Oc1ccc(CCCC2=NN(c3ccc(C(F)(F)F)cc3)C(=O)C23CCCC3)cc1)C(=O)NC1CC1` [Example 26, N-cyclopropyl-2-methyl-2-(4-(3-(4-oxo-3-(4-(trifluoromethyl)phenyl)-2,3-diazaspiro[4,4]non-1-en-1-yl)propyl)phenoxy)propanamide], the figure is 0.11 µM.
`CC(C)(Oc1ccc(CCCC2=NN(c3ccc(C(F)(F)F)cc3)C(=O)C23CCCC3)cc1)C(=O)NCC(F)(F)F` [Example 27, 2-methyl-2-(4-(3-(4-oxo-3-(4-(trifluoromethyl)phenyl)-2,3-diazaspiro[4,4]non-1-en-1-yl)propyl)phenoxy)-N-(2,2,2-trifluoroethyl)propanamide]: the IC50 amounted to 0.41 µM.
As for `CC(C)(Oc1ccc(CCCC2=NN(c3ccc(OC(F)(F)F)cc3)C(=O)C23CCCC3)cc1)C(=O)O` [Example 28, 2-methyl-2-(4-(3-(4-oxo-3-(4-(trifluoromethoxy)phenyl)-2,3-diazaspiro[4,4]non-1-en-1-yl)propyl)phenoxy)propanoic acid], the figure is 0.00097 µM.
As for `CC(C)(Oc1ccc(CCCC2=NN(c3ccc(OC(F)(F)F)cc3)C(=O)C23CCCC3)cc1)C(=O)NC1CC1` [Example 29, N-cyclopropyl-2-methyl-2-(4-(3-(4-oxo-3-(4-(trifluoromethoxy)phenyl)-2,3-diazaspiro[4,4]non-1-en-1-yl)propyl)phenoxy)propanamide], the figure is 0.069 µM.
Under `CC(C)(Oc1ccc(CCCC2=NN(c3ccc(OC(F)(F)F)cc3)C(=O)C23CCCC3)cc1)C(=O)NCC(F)(F)F` [Example 30, 2-methyl-2-(4-(3-(4-oxo-3-(4-(trifluoromethoxy)phenyl)-2,3-diazaspiro[4,4]non-1-en-1-yl)propyl)phenoxy)-N-(2,2,2-trifluoroethyl)propanamide] stands 0.71 µM.
In the case of `Cc1ccc(N2N=C(CCCc3ccc(OC(C)(C)C(=O)O)cc3)C3(CCCC3)C2=O)cc1C` [Example 31, 2-(4-(3-(3-(3,4-dimethylphenyl)-4-oxo-2,3-diazaspiro[4,4]non-1-en-1-yl)propyl)phenoxy)-2-methylpropanoic acid], the IC50 was 0.0026 µM.
Under `Cc1ccc(N2N=C(CCCc3ccc(OC(C)(C)C(=O)NC4CC4)cc3)C3(CCCC3)C2=O)cc1C` [Example 32, N-cyclopropyl-2-(4-(3-(3-(3,4-dimethylphenyl)-4-oxo-2,3-diazaspiro[4,4]non-1-en-1-yl)propyl)phenoxy)-2-methylpropanamide] stands 0.25 µM.

(Values after patent publication US9862708B2, “Pyrazolone compounds and uses thereof” (Tempest Therapeutics, Inc., priority 2014, dated 2018).)
